Measurements from the NIST ThermoML archive (doi:10.1016/j.jct.2015.01.004).
Several values for one entry are separate records, joined by “and”; a condition that tells them apart may be missing. Equal values may be shown once. Numbers after ± are expanded uncertainties.

Test: molar heat capacity at constant pressure; xn = mol fraction of the nth substance listed
Conditions: 100 kPa

[Si] [silicon] + [Li]
Conditions	molar heat capacity at constant pressure
660 K, Crystal of intercomponent compound 1, relaxation calorimetry + DSC, x2 = 0.81	29.4 ± 1.2 J/K/mol
660 K, Crystal of intercomponent compound 2, relaxation calorimetry + DSC, x2 = 0.804	30.54 ± 1.2 J/K/mol
661.54 K, Crystal of intercomponent compound 2, Small sample (50 mg) DSC, x2 = 0.804	30.1 ± 0.74 J/K/mol and 30.48 ± 0.75 J/K/mol
661.72 K, Crystal of intercomponent compound 1, Small sample (50 mg) DSC, x2 = 0.81	29.4 ± 0.72 J/K/mol
661.75 K, Crystal of intercomponent compound 1, Small sample (50 mg) DSC, x2 = 0.81	29.72 ± 0.73 J/K/mol
671.45 K, Crystal of intercomponent compound 2, Small sample (50 mg) DSC, x2 = 0.804	30.27 ± 0.74 J/K/mol and 30.68 ± 0.75 J/K/mol
671.64 K, Crystal of intercomponent compound 1, Small sample (50 mg) DSC, x2 = 0.81	29.62 ± 0.73 J/K/mol
671.66 K, Crystal of intercomponent compound 1, Small sample (50 mg) DSC, x2 = 0.81	29.83 ± 0.73 J/K/mol
680 K, Crystal of intercomponent compound 1, relaxation calorimetry + DSC, x2 = 0.81	29.94 ± 1.2 J/K/mol
680 K, Crystal of intercomponent compound 2, relaxation calorimetry + DSC, x2 = 0.804	30.97 ± 1.3 J/K/mol
681.36 K, Crystal of intercomponent compound 2, Small sample (50 mg) DSC, x2 = 0.804	30.52 ± 0.75 J/K/mol and 30.84 ± 0.76 J/K/mol
681.56 K, Crystal of intercomponent compound 1, Small sample (50 mg) DSC, x2 = 0.81	29.62 ± 0.73 J/K/mol
681.57 K, Crystal of intercomponent compound 1, Small sample (50 mg) DSC, x2 = 0.81	30.16 ± 0.74 J/K/mol
691.29 K, Crystal of intercomponent compound 2, Small sample (50 mg) DSC, x2 = 0.804	30.56 ± 0.75 J/K/mol and 31.08 ± 0.76 J/K/mol
691.47 K, Crystal of intercomponent compound 1, Small sample (50 mg) DSC, x2 = 0.81	29.94 ± 0.73 J/K/mol
691.48 K, Crystal of intercomponent compound 1, Small sample (50 mg) DSC, x2 = 0.81	30.38 ± 0.74 J/K/mol
700 K, Crystal of intercomponent compound 1, relaxation calorimetry + DSC, x2 = 0.81	30.53 ± 1.2 J/K/mol
700 K, Crystal of intercomponent compound 2, relaxation calorimetry + DSC, x2 = 0.804	31.4 ± 1.3 J/K/mol
701.21 K, Crystal of intercomponent compound 2, Small sample (50 mg) DSC, x2 = 0.804	31.04 ± 0.76 J/K/mol and 31.36 ± 0.77 J/K/mol
701.37 K, Crystal of intercomponent compound 1, Small sample (50 mg) DSC, x2 = 0.81	30.27 ± 0.74 J/K/mol
701.39 K, Crystal of intercomponent compound 1, Small sample (50 mg) DSC, x2 = 0.81	30.6 ± 0.75 J/K/mol
711.13 K, Crystal of intercomponent compound 2, Small sample (50 mg) DSC, x2 = 0.804	31.38 ± 0.77 J/K/mol and 31.59 ± 0.77 J/K/mol
711.28 K, Crystal of intercomponent compound 1, Small sample (50 mg) DSC, x2 = 0.81	30.6 ± 0.75 J/K/mol
711.3 K, Crystal of intercomponent compound 1, Small sample (50 mg) DSC, x2 = 0.81	30.82 ± 0.75 J/K/mol
720 K, Crystal of intercomponent compound 1, relaxation calorimetry + DSC, x2 = 0.81	31.18 ± 1.3 J/K/mol
720 K, Crystal of intercomponent compound 2, relaxation calorimetry + DSC, x2 = 0.804	31.84 ± 1.3 J/K/mol
721.05 K, Crystal of intercomponent compound 2, Small sample (50 mg) DSC, x2 = 0.804	31.75 ± 0.78 J/K/mol and 32.03 ± 0.78 J/K/mol
721.2 K, Crystal of intercomponent compound 1, Small sample (50 mg) DSC, x2 = 0.81	30.49 ± 0.75 J/K/mol
721.22 K, Crystal of intercomponent compound 1, Small sample (50 mg) DSC, x2 = 0.81	31.15 ± 0.76 J/K/mol
730.97 K, Crystal of intercomponent compound 2, Small sample (50 mg) DSC, x2 = 0.804	32.1 ± 0.79 J/K/mol and 32.36 ± 0.79 J/K/mol
731.12 K, Crystal of intercomponent compound 1, Small sample (50 mg) DSC, x2 = 0.81	31.04 ± 0.76 J/K/mol
731.13 K, Crystal of intercomponent compound 1, Small sample (50 mg) DSC, x2 = 0.81	31.37 ± 0.77 J/K/mol
740 K, Crystal of intercomponent compound 1, relaxation calorimetry + DSC, x2 = 0.81	31.88 ± 1.3 J/K/mol
740 K, Crystal of intercomponent compound 2, relaxation calorimetry + DSC, x2 = 0.804	32.3 ± 1.3 J/K/mol
740.89 K, Crystal of intercomponent compound 2, Small sample (50 mg) DSC, x2 = 0.804	32.38 ± 0.79 J/K/mol and 32.64 ± 0.8 J/K/mol
741.03 K, Crystal of intercomponent compound 1, Small sample (50 mg) DSC, x2 = 0.81	31.26 ± 0.77 J/K/mol
741.04 K, Crystal of intercomponent compound 1, Small sample (50 mg) DSC, x2 = 0.81	31.7 ± 0.78 J/K/mol
750.81 K, Crystal of intercomponent compound 2, Small sample (50 mg) DSC, x2 = 0.804	32.68 ± 0.8 J/K/mol and 32.92 ± 0.81 J/K/mol
750.95 K, Crystal of intercomponent compound 1, Small sample (50 mg) DSC, x2 = 0.81	31.81 ± 0.78 J/K/mol
750.96 K, Crystal of intercomponent compound 1, Small sample (50 mg) DSC, x2 = 0.81	32.14 ± 0.79 J/K/mol
760 K, Crystal of intercomponent compound 1, relaxation calorimetry + DSC, x2 = 0.81	32.63 ± 1.3 J/K/mol
760 K, Crystal of intercomponent compound 2, relaxation calorimetry + DSC, x2 = 0.804	32.82 ± 1.3 J/K/mol
760.73 K, Crystal of intercomponent compound 2, Small sample (50 mg) DSC, x2 = 0.804	33.14 ± 0.81 J/K/mol and 33.47 ± 0.82 J/K/mol
760.87 K, Crystal of intercomponent compound 1, Small sample (50 mg) DSC, x2 = 0.81	32.14 ± 0.79 J/K/mol and 32.58 ± 0.8 J/K/mol
770.64 K, Crystal of intercomponent compound 2, Small sample (50 mg) DSC, x2 = 0.804	33.77 ± 0.83 J/K/mol and 34.02 ± 0.83 J/K/mol
770.79 K, Crystal of intercomponent compound 1, Small sample (50 mg) DSC, x2 = 0.81	33.23 ± 0.82 J/K/mol and 33.34 ± 0.82 J/K/mol
771.71 K, Crystal of intercomponent compound 1, Small sample (50 mg) DSC, x2 = 0.81	33.67 ± 0.83 J/K/mol
773.69 K, Crystal of intercomponent compound 1, Small sample (50 mg) DSC, x2 = 0.81	33.78 ± 0.83 J/K/mol
775.67 K, Crystal of intercomponent compound 1, Small sample (50 mg) DSC, x2 = 0.81	33.89 ± 0.83 J/K/mol
777.66 K, Crystal of intercomponent compound 1, Small sample (50 mg) DSC, x2 = 0.81	34.22 ± 0.84 J/K/mol
779.64 K, Crystal of intercomponent compound 1, Small sample (50 mg) DSC, x2 = 0.81	34.39 ± 0.84 J/K/mol
780 K, Crystal of intercomponent compound 1, relaxation calorimetry + DSC, x2 = 0.81	33.45 ± 1.4 J/K/mol
780 K, Crystal of intercomponent compound 2, relaxation calorimetry + DSC, x2 = 0.804	33.49 ± 1.4 J/K/mol
780.56 K, Crystal of intercomponent compound 2, Small sample (50 mg) DSC, x2 = 0.804	34.41 ± 0.84 J/K/mol and 34.69 ± 0.85 J/K/mol
780.7 K, Crystal of intercomponent compound 1, Small sample (50 mg) DSC, x2 = 0.81	34 ± 0.83 J/K/mol
780.71 K, Crystal of intercomponent compound 1, Small sample (50 mg) DSC, x2 = 0.81	34.22 ± 0.84 J/K/mol
781.63 K, Crystal of intercomponent compound 1, Small sample (50 mg) DSC, x2 = 0.81	34.88 ± 0.85 J/K/mol
783.61 K, Crystal of intercomponent compound 1, Small sample (50 mg) DSC, x2 = 0.81	34.99 ± 0.86 J/K/mol
785.59 K, Crystal of intercomponent compound 1, Small sample (50 mg) DSC, x2 = 0.81	35.21 ± 0.86 J/K/mol
787.58 K, Crystal of intercomponent compound 1, Small sample (50 mg) DSC, x2 = 0.81	35.32 ± 0.87 J/K/mol
789.57 K, Crystal of intercomponent compound 1, Small sample (50 mg) DSC, x2 = 0.81	35.32 ± 0.87 J/K/mol
790.48 K, Crystal of intercomponent compound 2, Small sample (50 mg) DSC, x2 = 0.804	34.65 ± 0.85 J/K/mol and 35.21 ± 0.86 J/K/mol
790.61 K, Crystal of intercomponent compound 1, Small sample (50 mg) DSC, x2 = 0.81	34.99 ± 0.86 J/K/mol
790.63 K, Crystal of intercomponent compound 1, Small sample (50 mg) DSC, x2 = 0.81	34.55 ± 0.85 J/K/mol
791.55 K, Crystal of intercomponent compound 1, Small sample (50 mg) DSC, x2 = 0.81	35.54 ± 0.87 J/K/mol
793.53 K, Crystal of intercomponent compound 1, Small sample (50 mg) DSC, x2 = 0.81	35.76 ± 0.88 J/K/mol
795.51 K, Crystal of intercomponent compound 1, Small sample (50 mg) DSC, x2 = 0.81	36.31 ± 0.89 J/K/mol
797.49 K, Crystal of intercomponent compound 1, Small sample (50 mg) DSC, x2 = 0.81	36.96 ± 0.91 J/K/mol
800 K, Crystal of intercomponent compound 1, relaxation calorimetry + DSC, x2 = 0.81	34.34 ± 1.4 J/K/mol
800 K, Crystal of intercomponent compound 2, relaxation calorimetry + DSC, x2 = 0.804	34.61 ± 1.4 J/K/mol
800.39 K, Crystal of intercomponent compound 2, Small sample (50 mg) DSC, x2 = 0.804	35.13 ± 0.86 J/K/mol and 35.58 ± 0.87 J/K/mol
810.3 K, Crystal of intercomponent compound 2, Small sample (50 mg) DSC, x2 = 0.804	35.47 ± 0.87 J/K/mol and 36.02 ± 0.88 J/K/mol
820 K, Crystal of intercomponent compound 2, relaxation calorimetry + DSC, x2 = 0.804	36.83 ± 1.5 J/K/mol
820.22 K, Crystal of intercomponent compound 2, Small sample (50 mg) DSC, x2 = 0.804	36.24 ± 0.89 J/K/mol and 36.35 ± 0.89 J/K/mol
830.13 K, Crystal of intercomponent compound 2, Small sample (50 mg) DSC, x2 = 0.804	38.35 ± 0.94 J/K/mol and 38.57 ± 0.95 J/K/mol
840 K, Crystal of intercomponent compound 2, relaxation calorimetry + DSC, x2 = 0.804	41.72 ± 1.7 J/K/mol
840.04 K, Crystal of intercomponent compound 2, Small sample (50 mg) DSC, x2 = 0.804	41.23 ± 1 J/K/mol and 41.78 ± 1 J/K/mol
849.95 K, Crystal of intercomponent compound 2, Small sample (50 mg) DSC, x2 = 0.804	45.22 ± 1.1 J/K/mol and 47.32 ± 1.2 J/K/mol
859.87 K, Crystal of intercomponent compound 2, Small sample (50 mg) DSC, x2 = 0.804	51.54 ± 1.3 J/K/mol and 53.53 ± 1.3 J/K/mol
860 K, Crystal of intercomponent compound 2, relaxation calorimetry + DSC, x2 = 0.804	52.81 ± 2.1 J/K/mol
869.79 K, Crystal of intercomponent compound 2, Small sample (50 mg) DSC, x2 = 0.804	60.18 ± 1.5 J/K/mol and 65.17 ± 1.6 J/K/mol
